As usually defined, the bioavailability is the share of a dose that reaches the circulation, judged against a reference dose that is usually intravenous. A low value points to poor availability.

Experimental findings from patent EP0672658B1, “Antithrombotic agents” (priority 1994, dated 1995) are described below.

For data set [1], the target named is Human Thrombin (Homo sapiens, UniProt P00734). Kind of data set: biochemical. To be noted: read-out: Kass Human Thrombin (converted).
Data set [2] addresses factor Xa (Homo sapiens, UniProt P00742). Kind of data set: biochemical. The settings on record: read-out: Kass Xa (converted). Put shortly: (§1)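 Bovine trypsin and human factor Xa amidase activity measured chromogenically, following the human thrombin procedure. Substrates: N-Benzoyl-Ile-Glu-Gly-Arg-p-nitroanilide for factor Xa and N-Benzoyl-Phe-Val-Arg-p-nitroanilide for trypsin. Used for selectivity profiling.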

For data set [3], the target named is T1, Trypsin (Bos taurus, UniProt P00760).
T1 sequence (P00760 24-246): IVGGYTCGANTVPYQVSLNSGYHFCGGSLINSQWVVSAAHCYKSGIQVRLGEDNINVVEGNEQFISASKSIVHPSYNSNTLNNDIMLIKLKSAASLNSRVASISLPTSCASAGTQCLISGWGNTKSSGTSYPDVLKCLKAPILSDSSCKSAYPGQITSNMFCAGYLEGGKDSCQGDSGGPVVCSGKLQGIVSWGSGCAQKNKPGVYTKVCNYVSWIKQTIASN
Kind of data set: biochemical. Further details: species or system Bovine. To be noted: read-out: Kass Trypsin (converted). Put shortly:
as §1

Data set [4] concerns the target T2, Plasmin (Homo sapiens, UniProt P00747).
T2 construct: Human plasmin is purchased; purchased Boehringer Mannheim, Indianapolis, Indiana
Put plainly: biochemical. To be noted: read-out: Kass Plasmin (converted). Put shortly: (§2)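 Amidase activity of human plasmin and t-PA (nt-PA single-chain; mt-PA6) was measured by a chromogenic method adapted from a thrombin assay. Substrates were H-D-Val-Leu-Lys-p-nitroanilide for plasmin and H-D-Ile-Pro-Arg-p-nitroanilide for t-PA.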

For data set [5], the target named is t-PA (Homo sapiens, UniProt P00750). Put plainly: biochemical. The settings on record: read-out: Kass t-PA (converted). In outline:
as §2

In data set [6] the test system is human or animal plasma. Kind of data set: Anticoagulation determination in plasma: thrombin time (TT). The data set is classed as biochemical. To be noted: concentration doubling thrombin time. Put shortly:
(§3)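 Compounds spiked over a concentration range into citrated human, dog or rat plasma. PT used Thromboplastin-C; APTT used Actin reagent 120 s then 0.02 M CaCl2; TT used bovine thrombin 10 NIH units/mL. Concentration doubling clotting time estimated by linear extrapolation.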

Data set [7] is described as follows: in vivo. Also on record: species or system rats. To be noted: for % oral/i.v. activity (Rat): screening not completed, activity after p.o. dose given in the legend. The source says: Each sample population represented alternating sequential time points.
Data set [8] relates to human or animal plasma. Put plainly: Anticoagulation determination in plasma: activated partial thromboplastin time (APTT). The data set is classed as biochemical. The settings on record: concentration doubling activated partial thromboplastin time. In outline:
as §3

For data set [9], the system named is human or animal plasma. Put plainly: Anticoagulation determination in plasma: prothrombin time (PT). The data set is classed as biochemical. To be noted: concentration doubling prothrombin time. In outline:
as §3

Molecules are shown by their SMILES. Structures can show the parent of a compound that is named as a salt.
Wherever % oral/i.v. activity (Rat) is given: key: NC^1 indicates screening not completed; low or very low activity obsrved at 20 mg/kg p.o; NC^2 indicates screening not completed; low or very low activity observed at 60 mg/kg p.o; NC^3 indicates screening not completed; low or very low activity observed at 50 mg/kg p.o.

Chain of t-PA (P00750 36-562): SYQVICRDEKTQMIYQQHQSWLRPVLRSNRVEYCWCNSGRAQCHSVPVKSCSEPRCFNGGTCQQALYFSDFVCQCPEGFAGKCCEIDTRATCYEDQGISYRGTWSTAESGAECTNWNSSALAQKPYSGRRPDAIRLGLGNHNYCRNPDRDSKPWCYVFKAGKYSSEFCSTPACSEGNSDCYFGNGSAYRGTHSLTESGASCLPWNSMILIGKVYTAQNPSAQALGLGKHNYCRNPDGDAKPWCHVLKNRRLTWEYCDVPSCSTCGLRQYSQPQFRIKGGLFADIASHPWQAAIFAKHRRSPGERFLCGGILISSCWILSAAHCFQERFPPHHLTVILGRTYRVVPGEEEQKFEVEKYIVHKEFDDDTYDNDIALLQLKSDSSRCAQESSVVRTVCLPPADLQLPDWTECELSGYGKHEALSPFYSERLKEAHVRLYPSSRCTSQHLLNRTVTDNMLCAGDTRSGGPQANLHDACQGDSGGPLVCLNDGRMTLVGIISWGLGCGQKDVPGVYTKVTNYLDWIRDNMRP
Chain of factor Xa (P00742 235-488 limits assumed): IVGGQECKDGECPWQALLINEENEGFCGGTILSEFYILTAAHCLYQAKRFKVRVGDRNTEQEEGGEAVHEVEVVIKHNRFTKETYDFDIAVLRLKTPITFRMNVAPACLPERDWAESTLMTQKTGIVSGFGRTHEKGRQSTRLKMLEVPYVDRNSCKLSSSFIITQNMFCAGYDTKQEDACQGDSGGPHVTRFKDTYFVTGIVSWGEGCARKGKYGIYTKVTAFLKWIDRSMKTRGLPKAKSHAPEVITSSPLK
Chain of factor Xa (P00742 41-179 partner limits assumed): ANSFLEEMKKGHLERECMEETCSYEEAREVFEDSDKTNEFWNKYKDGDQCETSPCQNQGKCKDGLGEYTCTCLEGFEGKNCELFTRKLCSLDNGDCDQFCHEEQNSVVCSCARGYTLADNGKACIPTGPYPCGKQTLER
T2 sequence (P00747 581-810 limits assumed): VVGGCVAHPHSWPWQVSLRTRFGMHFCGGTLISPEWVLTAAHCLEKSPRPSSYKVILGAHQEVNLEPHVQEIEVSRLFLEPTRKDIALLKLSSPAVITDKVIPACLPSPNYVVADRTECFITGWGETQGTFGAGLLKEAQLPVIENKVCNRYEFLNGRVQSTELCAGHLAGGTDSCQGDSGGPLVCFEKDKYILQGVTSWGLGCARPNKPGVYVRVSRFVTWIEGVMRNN
T2 sequence (P00747 97-580 partner limits assumed): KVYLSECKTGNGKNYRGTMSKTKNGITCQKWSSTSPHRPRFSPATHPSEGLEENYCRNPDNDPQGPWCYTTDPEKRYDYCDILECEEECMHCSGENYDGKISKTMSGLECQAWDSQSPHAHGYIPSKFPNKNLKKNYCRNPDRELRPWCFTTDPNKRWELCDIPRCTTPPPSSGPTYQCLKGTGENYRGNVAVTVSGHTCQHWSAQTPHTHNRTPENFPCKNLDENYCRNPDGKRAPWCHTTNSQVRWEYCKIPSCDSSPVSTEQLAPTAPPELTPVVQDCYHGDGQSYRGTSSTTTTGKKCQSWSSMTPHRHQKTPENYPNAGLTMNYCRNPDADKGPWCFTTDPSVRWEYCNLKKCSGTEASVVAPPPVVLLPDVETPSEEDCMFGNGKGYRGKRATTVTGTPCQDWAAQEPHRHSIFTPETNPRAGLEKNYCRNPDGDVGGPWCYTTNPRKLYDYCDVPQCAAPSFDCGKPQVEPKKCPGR

Take `CCS(=O)(=O)N[C@H](Cc1ccccc1)C(=O)N1CCC[C@H]1C(=O)NCCCCNC(=N)N` [Example 1, EtS02-D-Phe-Pro-Agm·HCl]: the Kd is 0.303 µM in [1]; 588 µM in data set [2]; 2.63 µM in data set [3]; 100 µM in [4]; 12.2 µM in data set [5]. For the same molecule, in [6], the “Human Plasma Anticoagulation 2x Clotting time (ng/mL) TT” value is listed as 250 ng/mL. This molecule also showed a bioavailability in [7] (plasma, rat, oral vs i.v.) of 8%.
As to `O=C(O)CN[C@H](CC1CCCCC1)C(=O)N1CCC[C@H]1C(=O)NCC1CCNCC1` [Example 53, HO2CCH2-D-Cha-Pro-4-NHCH2-piperidine·HCl], the Kd in data set [1] is 2.78 µM; in [2], greater than 1000 µM; in data set [3], 10 µM; in data set [4] it was greater than 1000 µM; in data set [5], greater than 1000 µM. Further, the “Human Plasma Anticoagulation 2x Clotting time (ng/mL) TT” value in data set [6] is given as 1,400 ng/mL. Moreover, the “Human Plasma Anticoagulation 2x Clotting time (ng/mL) APTT” value in data set [8] is 33,800 ng/mL. Further, the “Human Plasma Anticoagulation 2x Clotting time (ng/mL) PT” value in [9] is recorded as 34,500 ng/mL.
On to `O=C(O)CN[C@H](CC1CCCCC1)C(=O)N1CCC[C@H]1C(=O)NCCC1CCNCC1` [Example 54, HO2CCH2-D-Cha-Pro-4-NHCH2CH2-piperidine·HCl], for which the Kd in data set [1] is 0.357 µM; in [2], greater than 1000 µM; in data set [3], 1.92 µM; in data set [4] it was 100 µM; in [5], greater than 1000 µM. Moreover, the “Human Plasma Anticoagulation 2x Clotting time (ng/mL) TT” value in data set [6] amounted to 140 ng/mL. Also, in data set [8], the “Human Plasma Anticoagulation 2x Clotting time (ng/mL) APTT” value was 3,300 ng/mL. In addition, in [9], the “Human Plasma Anticoagulation 2x Clotting time (ng/mL) PT” value is 2,200 ng/mL.
Consider `O=C(O)CN[C@H](CC1CCCCC1)C(=O)N1CCC[C@H]1C(=O)NCCCC1CCNCC1` [Example 55, HO2CCH2-D-Cha-Pro-4-NHCH2CH2CH2-piperidine·HCl], for which the Kd in [1] is 100 µM; in data set [2], greater than 1000 µM; in data set [3], 100 µM; in [4], greater than 1000 µM; in [5] it was greater than 1000 µM. Moreover, the “Human Plasma Anticoagulation 2x Clotting time (ng/mL) TT” value in data set [6] is recorded as 55,800 ng/mL. Besides, in [8], the “Human Plasma Anticoagulation 2x Clotting time (ng/mL) APTT” value is >91,000 ng/mL. Further, the “Human Plasma Anticoagulation 2x Clotting time (ng/mL) PT” value in [9] was >91,000 ng/mL.
Regarding `N=C(N)N1CCC(CNC(=O)[C@@H]2CCCN2C(=O)[C@@H](CC2CCCCC2)NCC(=O)O)CC1` [Example 56, HO2CCH2-D-Cha-Pro-4-NHCH2-1-amidinopiperidine·HCl], the Kd is 0.00204 µM in data set [1]; 5 µM in [2]; 0.278 µM in [3]; 100 µM in data set [4]; greater than 1000 µM in data set [5]. Further, the “Human Plasma Anticoagulation 2x Clotting time (ng/mL) TT” value in [6] is on record as 5 ng/mL. The “Human Plasma Anticoagulation 2x Clotting time (ng/mL) APTT” value in [8] is on record as 160 ng/mL. In addition, in data set [9], the “Human Plasma Anticoagulation 2x Clotting time (ng/mL) PT” value stood at 200 ng/mL.
`N=C(N)N1CCC(CCNC(=O)[C@@H]2CCCN2C(=O)[C@@H](CC2CCCCC2)NCC(=O)O)CC1` [Example 57, HO2CCH2-D-Cha-Pro-4-NHCH2CH2-1-amidinopiperidine·HCl]: the Kd in data set [1] is 0.0256 µM; in data set [2], 100 µM; in data set [3] it was 4.17 µM; in data set [4], 100 µM; in data set [5], greater than 1000 µM. Besides, the “Human Plasma Anticoagulation 2x Clotting time (ng/mL) TT” value in data set [6] was found to be 14 ng/mL. For the same molecule, in data set [8], the “Human Plasma Anticoagulation 2x Clotting time (ng/mL) APTT” value came out at 360 ng/mL. The “Human Plasma Anticoagulation 2x Clotting time (ng/mL) PT” value in data set [9] is 340 ng/mL.
As for `O=C(O)CN[C@H](CC1CCCCC1)C(=O)N1CCC[C@H]1C(=O)NCC1=CCNCC1` [Example 58, HO2CCH2-D-Cha-Pro-4-NHCH2-3,4-dehydro-piperidine·HCl], the Kd is 1.67 µM in data set [1]; greater than 1000 µM in data set [2]; 2.5 µM in [3]; greater than 1000 µM in data set [4]; greater than 1000 µM in data set [5]. Besides, the “Human Plasma Anticoagulation 2x Clotting time (ng/mL) TT” value in data set [6] stood at 710 ng/mL. In data set [8], the “Human Plasma Anticoagulation 2x Clotting time (ng/mL) APTT” value is 14,300 ng/mL. In data set [9], the “Human Plasma Anticoagulation 2x Clotting time (ng/mL) PT” value is reported as 11,400 ng/mL.
Regarding `O=C(O)CN[C@H](CC1CCCCC1)C(=O)N1CCC[C@H]1C(=O)NCCC1=CCNCC1` [Example 59, HO2CCH2-D-Cha-Pro-4-NHCH2CH2-3,4-dehydro-piperidine·HCl], the Kd is 0.909 µM in [1]; greater than 1000 µM in [2]; 4.76 µM in data set [3]; greater than 1000 µM in data set [4]; greater than 1000 µM in [5]. Besides, the “Human Plasma Anticoagulation 2x Clotting time (ng/mL) TT” value in [6] stood at 420 ng/mL. In addition, the “Human Plasma Anticoagulation 2x Clotting time (ng/mL) APTT” value in data set [8] is recorded as 5,500 ng/mL. Also, the “Human Plasma Anticoagulation 2x Clotting time (ng/mL) PT” value in data set [9] is given as 7,000 ng/mL.
For `O=C(O)CN[C@H](CC1CCCCC1)C(=O)N1CCC[C@H]1C(=O)NCCCC1=CCNCC1` [Example 60, HO2CCH2-D-Cha-Pro-4-NHCH2CH2CH2-3,4-dehydro-piperidine·HCl], the Kd in data set [1] is 4.17 µM; in [2], greater than 1000 µM; in [3] it was 33.3 µM; in data set [4], greater than 1000 µM; in data set [5], greater than 1000 µM. Besides, the “Human Plasma Anticoagulation 2x Clotting time (ng/mL) TT” value in [6] is recorded as 3,200 ng/mL. In addition, the “Human Plasma Anticoagulation 2x Clotting time (ng/mL) APTT” value in data set [8] was 22,200 ng/mL. Also, the “Human Plasma Anticoagulation 2x Clotting time (ng/mL) PT” value in [9] is listed as 77,700 ng/mL.
Turning to `N=C(N)NCCCCNC(=O)[C@@H]1CCCN1C(=O)[C@@H]1NCC[C@H]2CCCC[C@H]21` [Example 61, N-[4-[(aminoiminomethyl)amino]butyl]-1-[[(4aR,8aR)-decahydro-1(R)-isoquinolinyl]carbonyl]-1-prolinamide trihydrochloride], the Kd in data set [1] is 0.0159 µM; in data set [2], 33.3 µM; in data set [3], 1 µM; in data set [4], 250 µM; in [5], 125 µM. Further, the “Human Plasma Anticoagulation 2x Clotting time (ng/mL) TT” value in [6] worked out at 45 ng/mL. In addition, the “Human Plasma Anticoagulation 2x Clotting time (ng/mL) APTT” value in data set [8] is given as 679 ng/mL. Further, the “Human Plasma Anticoagulation 2x Clotting time (ng/mL) PT” value in [9] came out at 756 ng/mL.
With `Nc1ccc(CNC(=O)[C@@H]2CCCN2C(=O)[C@@H](CC2CCCCC2)NCC(=O)O)c(F)c1` [Example 64, HO2CCH2-D-Cha-Pro-4-NHCH2-3-F-C6H3NH2·HCl], the results for the Kd in [1] and in data set [2] were 0.0667 µM and 100 µM, respectively. Moreover, the “Human Plasma Anticoagulation 2x Clotting time (ng/mL) TT” value in [6] amounted to 23 ng/mL. Moreover, the “Human Plasma Anticoagulation 2x Clotting time (ng/mL) APTT” value in [8] is on record as 900 ng/mL. In [9], the “Human Plasma Anticoagulation 2x Clotting time (ng/mL) PT” value was determined as 650 ng/mL. In addition, the “% oral/i.v. activity (Rat)” value in data set [7] is recorded as “NC^3”.
As for `N=C(N)c1ccc(CNC(=O)[C@@H]2CCCN2C(=O)[C@@H](CC2CCCCC2)NCC(=O)O)c(F)c1` [Example 71, HO2CCH2-D-Cha-Pro-4-NHCH2-3-F-benzamidine·HCl], the Kd in data set [1] was 0.000714 µM; in [3], 0.00417 µM. Further, the “Human Plasma Anticoagulation 2x Clotting time (ng/mL) TT” value in [6] is recorded as 1 ng/mL. Further, the “Human Plasma Anticoagulation 2x Clotting time (ng/mL) APTT” value in [8] amounted to 89 ng/mL. In addition, the “Human Plasma Anticoagulation 2x Clotting time (ng/mL) PT” value in [9] was determined as 150 ng/mL. Further, the “% oral/i.v. activity (Rat)” value in data set [7] is reported as “NC^1”.
With `N=C(N)c1cc(F)c(CNC(=O)[C@@H]2CCCN2C(=O)[C@@H](CC2CCCCC2)NCC(=O)O)c(F)c1` [Example 72, HO2CCH2-D-Cha-Pro-4-NHCH2-3,5-F2-benzamidine·HCl], the Kd in data set [1] is 0.000435 µM; in [3], 0.00357 µM. Besides, the “Human Plasma Anticoagulation 2x Clotting time (ng/mL) TT” value in data set [6] is on record as 1 ng/mL. In addition, the “Human Plasma Anticoagulation 2x Clotting time (ng/mL) APTT” value in [8] was 160 ng/mL. Also, the “Human Plasma Anticoagulation 2x Clotting time (ng/mL) PT” value in data set [9] is 160 ng/mL. For the same molecule, the “% oral/i.v. activity (Rat)” value in data set [7] was “NC^1”.
